In patent US20250289790A1, “UV LIGHT STABILIZERS” (BASF SE, priority 2022, published 2025):

Assay: Solubility at room temperature in xylene / toluene
Type: physicochemical

## CC(C)(C)c1cc(CCC(=O)OCC(COC(=O)CCc2cc(-n3nc4ccc(Cl)cc4n3)c(O)c(C(C)(C)C)c2)(COC(=O)CCc2cc(-n3nc4ccc(Cl)cc4n3)c(O)c(C(C)(C)C)c2)COC(=O)CCc2cc(-n3nc4ccc(Cl)cc4n3)c(O)c(C(C)(C)C)c2)cc(-n2nc3ccc(Cl)cc3n2)c1O [Example C3]
  soluble in xylene: less than 1%
Room temperature
  Solubility at room temperature [g] xylene: 2 g
